# According to PubChem BioAssay (NCI):
# Where “and” joins values, the source holds several entries; their conditions need not be identical. Equal entries are not always repeated.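 A five-concentration, 48-hour dose response in 96-well plates underlies each endpoint, interpolated linearly between surrounding concentrations. GI50 = concentration required for 50% inhibition of growth. TGI denotes the concentration required for complete inhibition of growth.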
# System: SN12C renal
# Assay: NCI-60 cell line screen, 48 h
Structure (SMILES),TGI,GI50
CC12CCC(O)CC1CCC1C2CCC2(C)C(C3=CC(=O)OC3)CCC12O (stereo not given),4.72 µM,
CN/N=C(/Cc1occc(=O)c1O)C(=O)Nc1ccccc1C,> 100 µM,
Cc1coc2c1CC1(C)C(CCC(O)C1C)C2 (stereo not given),> 100 µM,
COc1ccc2c(c1)/C(=C/c1c(C)nc3sc(C)nn13)C(=O)N2,> 100 µM,7.2 µM
Cc1cc(I)cc(CN(C)CCCCN2CCCCC2)c1O,> 100 µM,35.5 µM
Cc1ccc(C(=O)/C(=C/c2ccc([N+](=O)[O-])cc2)SCc2ccc(Cl)cc2)cc1,4.68 µM,1.83 µM
O=C(Nc1ccc(Cl)c(Cl)c1)Nc1ccc(Cl)c(Cl)c1,11.8 µM and 10.7 µM,3.1 µM and 2.83 µM
C#Cc1ccc(-n2c(/C=C/c3ccc(C(F)(F)F)cc3)nc3ncccc3c2=O)cc1,5.63 µM,2.08 µM
COc1cc(/C=N/NC(=O)c2ccc(C(F)(F)F)nc2Nc2ccc(Cl)cc2C)ccc1O,16.5 µM,2.97 µM
O=C(N/C(=C\c1ccc(/C=C(\NC(=O)c2ccccc2)c2nc3cc([N+](=O)[O-])ccc3[nH]2)cc1)c1nc2cc([N+](=O)[O-])ccc2[nH]1)c1ccccc1,> 100 µM,
COc1ccc(C(=O)Cn2c(C(=O)c3ccccc3)nc(-c3ccc(OC)cc3)c2-c2ccc(OC)cc2)cc1,> 100 µM,> 100 µM
O=C1c2ccccc2C2C1N2C(=O)C(F)(F)F (stereo not given),> 100 µM,
CC1=C(C(=O)NCc2ccccc2)C(/C=C/c2ccccc2)C(C(=O)NCc2ccccc2)=C(C)N1,> 100 µM,
CSc1nc2c(c(=O)[nH]1)N=C1c3ccccc3C(=O)C1C(c1ccccc1)N2 (stereo not given),> 100 µM,6.39 µM
CCOC(=O)[C@]1(OC(C)=O)C[C@H](OC(C)=O)[C@@H](C(F)COP(=O)(OCc2ccccc2)OCc2ccccc2)O1 (stereo not given in full),> 100 µM,

# System: HOP-92 NSCLC
# Assay: NCI-60 cell line screen, 48 h
Structure (SMILES),TGI,GI50
COC1CCC2C(NS(=O)(=O)c3ccc(C)cc3)CCCC2O1 (stereo not given) (tested in a mixture with another compound),28 µM,
O=C1/C(=C/c2cccc([N+](=O)[O-])c2)COc2ccc(O)cc21,7.89 µM,2.51 µM
CCCCC(=O)OCC(=O)[C@]1(O)Cc2c(O)c3c(c(O)c2[C@@H](OC2CC(NC(=O)C(F)(F)F)C(O)C(C)O2)C1)C(=O)c1c(OC)cccc1C3=O (stereo not given in full),3.88 µM,
C[C@]12CC[C@H](O)CC1=CC[C@@H]1C2CC[C@]2(C)C(=O)N(N)C(=O)CC12 (stereo not given in full),> 100 µM,
C=C(CN1CCN(c2ccc(Cl)cc2F)CC1)c1ccc(C(=O)Nc2ccccc2N)cc1,> 27.4 µM,1.57 µM
CC(C)=CC(=O)C1c2cccc(O)c2C(=O)c2c(O)cc(C)cc21 (stereo not given),7.83 µM,
COC(CN1C(=O)c2cccc3cccc(c23)C1=O)OC,> 100 µM,
O=C1C=C(Cl)C(=O)C(c2ccc(Cl)cc2)=C1,35.7 µM,
Cc1ccc2c(=O)cc(-c3ccc(F)cc3)[nH]c2n1,86.5 µM,
CCOc1ccc(NC(=O)C(=O)CC(=O)c2c[n+](=O)c3cc(C)c(C)cc3n2[O-])cc1,> 100 µM,
Cn1cc(C2=C(c3cn(C)c4ncccc34)C(=O)NC2=O)c2ccccc21,> 22.9 µM,7.71 µM
O=C1C(Cl)=C(Nc2cccc(Cl)c2)C(=O)N1Cc1ccc(Cl)cc1Cl,20.9 µM,2.55 µM
CC(=O)NNc1nc(C)c(C(=O)NNC(=O)C(=O)Nc2ccc(Cl)cc2)s1,> 100 µM,
O=C(/C=C/C12c3ccccc3C(c3ccccc31)C1C(=O)NC(=O)C12)c1ccncc1 (stereo not given),6.27 µM,1.94 µM
CC1(C)CCc2c(c3c(c4c(=O)c(O)c(-c5ccc(O)cc5)oc24)OC(C)(C)CC3)O1,38.2 µM,14.6 µM
CC12CCC(O)CC1CCC1C2CCC2(C)C(C3=CC(=O)OC3)CCC12O (stereo not given),> 41.9 µM,
CN/N=C(/Cc1occc(=O)c1O)C(=O)Nc1ccccc1C,> 100 µM,
Cc1coc2c1CC1(C)C(CCC(O)C1C)C2 (stereo not given),> 100 µM,
COc1ccc2c(c1)/C(=C/c1c(C)nc3sc(C)nn13)C(=O)N2,> 77.8 µM,9.86 µM
Cc1cc(I)cc(CN(C)CCCCN2CCCCC2)c1O,38.2 µM,6.2 µM
Cc1ccc(C(=O)/C(=C/c2ccc([N+](=O)[O-])cc2)SCc2ccc(Cl)cc2)cc1,55.2 µM,2.86 µM
O=C(Nc1ccc(Cl)c(Cl)c1)Nc1ccc(Cl)c(Cl)c1,5.81 µM and 4.47 µM,2.19 µM and 1.23 µM
